Where a name gives a salt, the structure may show the parent alone.
System: SU-DHL-4 cells
Experiment: Inhibitory effect on cell viability (Cell Counting Kit-8)
Format: cell-based
Details: Homo sapiens, 72 hours culture with test compound, concentration showing 90% inhibition rate of cell viability
Experimental: Inhibitiory Effect on Cell Viability
SU-DHL-4 cells (Code No. ACC 495, Deutsche Sammlung von Mikroorganismen and Zellkulturen GmbH) were cultured at 37° C. using a carbon dioxide incubator (95% air, 5% CO2) in RPMI1640 medium (Code No. 11875-093, Thermo Fisher Scientific) in which inactivated fetal bovine serum (FBS: Code No. 10099-148, Thermo Fisher Scientific) in an amount to give a final concentration of 10 vol % and penicillin/streptomycin solution (PS: Code No. 15140-122, Thermo Fisher Scientific) in an amount to give a final concentration of 1 vol % were added. The cells were passaged twice a week at a volume of 20-40 mL so as to maintain a cell concentration of 1×10^6 cells/mL or less.
The cultured SU-DHL-4 cells were seeded at 2000 cells/well in a transparent 384-well plate (Code No. 781182, Greiner bio-one). After seeding, the cells were precultured at 37° C. in a carbon dioxide gas incubator for 18 to 25 hours. Next, 1, 0.1 or 0.01 mmol/L DMSO solution of the test compound was prepared and a 9-step dilution series were prepared so that the concentration will be 200 times the final concentration in the RPMI1640 medium containing the above FBS and PS, and 1/200 volume of the dilution series were added to each well. At this time, the final concentration of DMSO was adjusted to be 0.1 vol %. After adding the test compound, the cells were cultured at 37° C. in a carbon dioxide gas incubator for 72 hours. Next, 0.020 mL of Cell Counting Kit-8 (Code No. CK04, DOJINDO) solution diluted 2-fold or 4-fold with phosphate buffered saline (PBS) was added to each well. Color reaction was carried out in a carbon dioxide gas incubator at 37° C. for 2 to 3 hours, and the absorbance at a wavelength of 450 nm was measured using SpectraMax 340PC (Molecular Devices). The inhibition rate of cell viability was calculated by the following formula, and the concentration of the test compound (IC90 value) showing a 90% inhibition rate of cell viability was calculated. Inhibition rate of cell viability (%)=100−(A−B)/(C−B)×100 • A: Absorbance of a well containing test compound • B: Absorbance of a well without addition of cells • C: Absorbance of a well without addition of test compound

SMILES	IC90 [nM]
CCC(=O)N1c2ccccc2[C@H](Nc2ccc(-c3nnc(CNC(=O)C4CCN(Cc5cc(O)cc(-c6c(C)noc6C)c5)CC4)o3)cc2)C[C@@H]1C [Compound 12a, 1-(3-(3,5-Dimethylisoxazol-4-yl)-5-hydroxybenzyl)-N-((5-(4-(((2S,4R)-2-methyl-1-propionyl-1,2,3,4-tetrahydroquinolin-4-yl)amino)phenyl)-1,3,4-oxadiazol-2-yl)methyl)piperidine-4-carboxamide]	1.01
CCC(=O)N1c2ccccc2[C@H](Nc2ccc(C(=O)N3CCC(C(=O)Nc4ccc(N[C@@H]5C[C@H](C)N(C(=O)CC)c6ccccc65)nc4)CC3)cc2)C[C@@H]1C (relative stereo) [Compound 10m, 1-(4-(((2S,4R)-2-Methyl-1-propionyl-1,2,3,4-tetrahydroquinolin-4-yl)amino)benzoyl)-N-(6-(((2S*,4R*)-2-methyl-1-propionyl-1,2,3,4-tetrahydroquinolin-4-yl)amino)pyridin-3-yl)piperidine-4-carboxamide]	30.9
Cc1sc2c(c1C)C(c1ccc(C(=O)NCC(=O)CNC(=O)c3ccc(C4=NCc5nnc(C)n5-c5sc(C)c(C)c54)cc3)cc1)=NCc1nnc(C)n1-2 [Compound 14o, N,N′-(2-Oxopropane-1,3-diyl)bis(4-(2,3,9-trimethyl-6H-thieno[3,2-f][1,2,4]triazolo[4,3-a][1,4]diazepin-4-yl)benzamide)]	30.9
CCC(=O)N1c2ccc(F)cc2[C@H](Nc2ccc(C(=O)NCCCNC(=O)c3ccc(N[C@@H]4C[C@H](C)N(C(=O)CC)c5ccc(F)cc54)cc3)cc2)C[C@@H]1C [Compound 10q, N,N′-(Propane-1,3-diyl)bis(4-(((2S,4R)-6-fluoro-2-methyl-1-propionyl-1,2,3,4-tetrahydroquinolin-4-yl)amino)benzamide)]	9.88
CCC(=O)N1c2ccccc2[C@H](Nc2ccc(NC(=O)CCS(=O)(=O)Nc3ccc(N[C@@H]4C[C@H](C)N(C(=O)CC)c5ccccc54)cc3)cc2)C[C@@H]1C [Compound 6b, N-(4-(((2S,4R)-2-Methyl-1-propionyl-1,2,3,4-tetrahydroquinolin-4-yl)amino)phenyl)-3-(N-(4-(((2S,4R)-2-methyl-1-propionyl-1,2,3,4-tetrahydroquinolin-4-yl)amino)phenyl)sulfamoyl)propanamide]	0.1
CCC(=O)N1c2ccccc2[C@H](Nc2ccc(CNCc3nnc(-c4ccc(N[C@@H]5C[C@H](C)N(C(=O)CC)c6ccccc65)cc4)o3)cc2)C[C@@H]1C [Compound 5g, 1-((2S,4R)-2-Methyl-4-((4-((((5-(4-(((2S,4R)-2-methyl-1-propionyl-1,2,3,4-tetrahydroquinolin-4-yl)amino)phenyl)-1,3,4-oxadiazol-2-yl)methyl)amino)methyl)phenyl)amino)-3,4-dihydroquinolin-1(2H)-yl)propan-1-one]	2.53
CCC(=O)N1c2ccccc2[C@H](Nc2ccc(CNCC(=O)Nc3ccc(N[C@@H]4C[C@H](C)N(C(=O)CC)c5ccccc54)cc3)cc2)C[C@@H]1C [Compound 5i, 2-((4-(((2S,4R)-2-Methyl-1-propionyl-1,2,3,4-tetrahydroquinolin-4-yl)amino)benzyl)amino)-N-(4-(((2S,4R)-2-methyl-1-propionyl-1,2,3,4-tetrahydroquinolin-4-yl)amino)phenyl)acetamide hydrochloride]	4.49
CCC(=O)N1c2ccccc2[C@H](NCCCC(=O)NCCn2cc(-c3ccc(N[C@@H]4C[C@H](C)N(C(=O)CC)c5ccccc54)cc3)cn2)C[C@@H]1C (relative stereo) [Compound 12i, 4-(((2S*,4R*)-2-Methyl-1-propionyl-1,2,3,4-tetrahydroquinolin-4-yl)amino)-N-(2-(4-(4-(((2S,4R)-2-methyl-1-propionyl-1,2,3,4-tetrahydroquinolin-4-yl)amino)phenyl)-1H-pyrazol-1-yl)ethyl)butanamide]	3.68
CCC(=O)N1c2ccccc2[C@H](Nc2ccc(C(=O)N3CC(NC(=O)c4ccc(C5=N[C@@H](CC(=O)OC(C)(C)C)c6nnc(C)n6-c6sc(C)c(C)c65)cc4)C3)cc2)C[C@@H]1C [Compound 1n, tert-Butyl 2-[(S)-2,3,9-trimethyl-4-(4-{[1-(4-{[(2S,4R)-2-methyl-1-propionyl-1,2,3,4-tetrahydroquinolin-4-yl]amino}benzoyl)azetidin-3-yl]carbamoyl}phenyl)-6H-thieno[3,2-f][1,2,4]triazolo[4,3-a][1,4]diazepin-6-yl]acetate]	0.49
CCC(=O)N1c2ccccc2[C@H](Nc2ccc(C(=O)NC3CCN(C(=O)c4ccc(C5=NCc6nnc(C)n6-c6sc(C)c(C)c65)cc4)CC3)cc2)C[C@@H]1C [Compound 1m, 4-{[(2S,4R)-2-Methyl-1-propionyl-1,2,3,4-tetrahydroquinolin-4-yl]amino}-N-{1-[4-(2,3,9-trimethyl-6H-thieno[3,2-f][1,2,4]triazolo[4,3-a][1,4]diazepin-4-yl)benzoyl]piperidin-4-yl}benzamide]	0.53

Continued, values first:

IC90 [nM]	SMILES
0.03	CCC(=O)N1c2ccccc2[C@H](Nc2ccc(NC(=O)C#CCNC(=O)c3ccc(C4=NCc5nnc(C)n5-c5sc(C)c(C)c54)cc3)cc2)C[C@@H]1C [Compound 14i, N-(4-((4-(((2S,4R)-2-Methyl-1-propionyl-1,2,3,4-tetrahydroquinolin-4-yl)amino)phenyl)amino)-4-oxobut-2-yn-1-yl)-4-(2,3,9-trimethyl-6H-thieno[3,2-f][1,2,4]triazolo[4,3-a][1,4]diazepin-4-yl)benzamide]
0.74	CCC(=O)N1c2ccccc2[C@H](Nc2ccc(C(=O)NCc3ccc(-c4ccc(C5=NCc6nnc(C)n6-c6sc(C)c(C)c65)cc4)s3)cc2)C[C@@H]1C [Compound 14j, 4-(((2S,4R)-2-Methyl-1-propionyl-1,2,3,4-tetrahydroquinolin-4-yl)amino)-N-((5-(4-(2,3,9-trimethyl-6H-thieno[3,2-f][1,2,4]triazolo[4,3-a][1,4]diazepin-4-yl)phenyl)thiophen-2-yl)methyl)benzamide]
0.11	CCC(=O)N1c2ccccc2[C@H](Nc2ccc(NC(=O)Cc3cn(-c4ccc(N[C@@H]5C[C@H](C)N(C(=O)CC)c6ccccc65)cc4)nn3)cc2)C[C@@H]1C (relative stereo) [Compound 6i, N-(4-(((2S*,4R*)-2-Methyl-1-propionyl-1,2,3,4-tetrahydroquinolin-4-yl)amino)phenyl)-2-(1-(4-(((2S*,4R*)-2-methyl-1-propionyl-1,2,3,4-tetrahydroquinolin-4-yl)amino)phenyl)-1H-1,2,3-triazol-4-yl)acetamide]
39.6	CCC(=O)N1c2ccccc2[C@H](Nc2ccc(CN3CCn4cc(-c5ccc(N[C@@H]6C[C@H](C)N(C(=O)CC)c7ccccc76)cc5)nc4C3)cc2)C[C@@H]1C [Compound 5b, 1-((2S,4R)-2-Methyl-4-((4-((2-(4-(((2S,4R)-2-methyl-1-propionyl-1,2,3,4-tetrahydroquinolin-4-yl)amino)phenyl)-5,6-dihydroimidazo[1,2-a]pyrazin-7(8H)-yl)methyl)phenyl)amino)-3,4-dihydroquinolin-1(2H)-yl)propan-1-one]
0.35	CCC(=O)N1c2ccccc2[C@H](Nc2ccc(NC(=O)NCCNC(=O)c3ccc(N[C@@H]4C[C@H](C)N(C(=O)CC)c5ccccc54)cc3)cc2)C[C@@H]1C (relative stereo) [Compound 6l, 4-(((2S,4R)-2-Methyl-1-propionyl-1,2,3,4-tetrahydroquinolin-4-yl)amino)-N-(2-(3-(4-(((2S*,4R*)-2-methyl-1-propionyl-1,2,3,4-tetrahydroquinolin-4-yl)amino)phenyl)ureido)ethyl)benzamide]
0.04	CCC(=O)N1c2ccccc2[C@H](Nc2ccc(-c3cnn(CC(=O)Nc4ccc(C5=NCc6nnc(C)n6-c6sc(C)c(C)c65)cc4)c3)cc2)C[C@@H]1C [Compound 14a, 2-(4-(4-(((2S,4R)-2-Methyl-1-propionyl-1,2,3,4-tetrahydroquinolin-4-yl)amino)phenyl)-1H-pyrazol-1-yl)-N-(4-(2,3,9-trimethyl-6H-thieno[3,2-f][1,2,4]triazolo[4,3-a][1,4]diazepin-4-yl)phenyl)acetamide]
0.63	CCC(=O)N1c2ccccc2[C@H](Nc2ccc(NC(=O)C3CCN(C(=O)c4ccc(N[C@@H]5C[C@H](C)N(C(=O)CC)c6ccccc65)cc4)CC3)cc2)C[C@@H]1C (relative stereo) [Compound 2g, 1-(4-{[(2S,4R)-2-Methyl-1-propionyl-1,2,3,4-tetrahydroquinolin-4-yl]amino}benzoyl)-N-(4-{[(2S*,4R*)-2-methyl-1-propionyl-1,2,3,4-tetrahydroquinolin-4-yl]amino}phenyl)piperidine-4-carboxamide]

— patent US12054494B2, “Compound with anticancer activity” (KYOWA KIRIN CO., LTD., priority 2018, dated 2024)
